# Measurements published in patent EP4786487A1, “PEPTIDE” (Peptidream Inc, priority 2023, dated 2025).
# Read-outs that look alike come from different tables or passages of the source. Starred links: 1 amine or outer side, 2 acyl side, 3 side chain; linkers in the order of their positions; H or OH if unused. Positions of bridges follow the written chain, without caps; N, C: chain ends. Non-standard residues stand in square brackets, D forms with d. Residues, ends and D or L forms follow the SMILES beside them. Groups on a side chain read outwards from the residue. *: point of attachment. X6 = CS(=O)(=O)c1ccc(-c2ccc(C[C@H](N[*:1])C(=O)[*:2])cc2)cc1; Phe(3-OCH2COOH) = N[C@@H](Cc1cccc(OCC(=O)O)c1)C(=O)O; NMePhe(3-Ph) = CN[C@@H](Cc1cccc(-c2ccccc2)c1)C(=O)O; X15 = O=C([C@H](Cc1ccc(-c2ccccn2)cc1)N[*:1])[*:2]; Phe(4-COOH) = N[C@@H](Cc1ccc(C(=O)O)cc1)C(=O)O; Trp(7-aza) = N[C@@H](Cc1c[nH]c2ncccc12)C(=O)O; Tyr(Ph) = N[C@@H](Cc1ccc(Oc2ccccc2)cc1)C(=O)O; Piperazinyl(4-CH2COOH) = O=C(O)CN1CCN(*)CC1; Gly(decyl) = CCCCCCCCCC[C@H](N)C(=O)O; Gly(N(CH2)3COOH) = O=C(O)CCCNCC(=O)O; X1 = CCCCCCC[C@H](N[*:1])C(=O)[*:2]; NMeF = CN[C@@H](Cc1ccccc1)C(=O)O; NMeE = CN[C@@H](CCC(=O)O)C(=O)O; Cha = N[C@@H](CC1CCCCC1)C(=O)O; Gly(N(CH2)3NH2) = NCCCNCC(=O)O; Carboxymethyl = O=C(O)C*; NMeA = CN[C@@H](C)C(=O)O; Dap = NC[C@H](N)C(=O)O; CO = O=C([*:1])[*:2]; Sar = CNCC(=O)O
# What was measured:
# [1] = target: T1, GDF-11 (Homo sapiens, UniProt O95390); experiment: HepG2 reporter gene assay, Evaluation Procedure (2): 2-concentrations assay, GDF-11 inhibition; assay type: cell-based; settings: for inhibition at 0.03 µM: HepG2, peptide 30nM, read-out: GDF11 Inhibition 30nM; for inhibition at 0.03 µM / inhibition at 0.1 µM: GDF-11 10 ng/mL; for inhibition at 0.1 µM: HepG2, peptide 100nM, read-out: GDF11 Inhibition 100nM
# T1 construct: purchased R&D systems 1958-GD-G8/CF
# T1 sequence (O95390 299-407): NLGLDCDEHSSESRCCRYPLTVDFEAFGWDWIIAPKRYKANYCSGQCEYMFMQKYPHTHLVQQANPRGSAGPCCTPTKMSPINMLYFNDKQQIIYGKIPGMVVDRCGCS
# Outline: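 HepG2 cells carrying the transfected pGL3(CAGA)12-luc reporter, a pGL3 vector with luciferase placed downstream of 12 CAGA repeats, were stimulated with GDF-11 at a final 10 ng/mL together with test peptide. Blank wells received no GDF-11 and no peptide. Plates were incubated 20 to 24 hours at 37°C with 5% CO2. Luminescence from One-Glo substrate was read to calculate percent inhibition.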
# [2] = target: T2, Myostatin (Homo sapiens, UniProt O14793); experiment: HepG2 reporter gene assay, Evaluation Procedure (2): 2-concentrations assay, myostatin inhibition; assay type: cell-based
# T2 construct: active myostatin (also called mature myostatin) is a homodimer consisting of two C-terminal growth factor domains; purchased R&D systems 788-G8/CF
# T2 sequence (O14793 267-375): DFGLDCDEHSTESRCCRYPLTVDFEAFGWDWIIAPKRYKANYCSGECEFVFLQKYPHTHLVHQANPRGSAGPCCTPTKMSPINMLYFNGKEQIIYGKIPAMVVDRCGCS
# Outline: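 HepG2 cells (HB-8065, ATCC) carrying the transfected pGL3(CAGA)12-luc reporter plasmid were treated with myostatin (788-G8/CF, R&D systems) at a final concentration of 10 ng/mL plus peptide and incubated at 37°C, 5% CO2 for 20 to 24 hours. Luminescence was read after adding PBS mixed 1:1 with One-Glo substrate, and inhibition rate was calculated.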
# [3] = peptide 30nM, Myostatin 10 ng/mL, HepG2, read-out: Myostatin Inhibition 30nM
# [4] = peptide 100nM, Myostatin 10 ng/mL, HepG2, read-out: Myostatin Inhibition 100nM
# [5] = HepG2, read-out: inhibition rate (myostatin inhibition assay)
Compound,inhibition at 0.03 µM [1] [%],inhibition at 0.1 µM [1] [%],"inhibition at 0.03 µM [2, 3] [%]","inhibition at 0.1 µM [2, 4] [%]","inhibition ([1]; HepG2, read-out: inhibition rate (GDF-11 inhibition assay), Table 7-3/7-4, GDF-11 10 ng/mL, peptide at the higher of the 2 concentrations) [%]","inhibition ([1]; HepG2, read-out: inhibition rate (GDF-11 inhibition assay), Table 7-3/7-4, GDF-11 10 ng/mL, peptide at the lower of the 2 concentrations) [%]","inhibition at 0.03 µM [2, 5] [%]","inhibition at 0.1 µM [2, 5] [%]"
CCCCCCC[C@@H]1NC(=O)[C@H](Cc2ccccc2)N(C)C(=O)[C@H](CCCNC(=N)N)NC(=O)[C@H](Cc2ccc(C(=O)O)cc2)NC(=O)[C@H](Cc2cccc(OCC(=O)O)c2)NC(=O)CN(C)C(=O)[C@H]([C@@H](C)CC)NC(=O)[C@H](Cc2cccc(-c3ccccc3)c2)N(C)C(=O)[C@H](Cc2ccc(O)cc2)NC(=O)[C@H](Cc2c[nH]c3ccccc23)NC(=O)[C@H](C)NC(=O)[C@H](C)NC(=O)CSC[C@H](C(=O)N2CCN(CC(=O)O)CC2)NC(=O)[C@H](Cc2ccccc2)N(C)C(=O)[C@H](C)N(C)C1=O [Myostatin_99_v304] ({CH2CO}-AAWY[NMePhe(3-Ph)]I[Sar][Phe(3-OCH2COOH)][Phe(4-COOH)]R[NMeF][X1][NMeA][NMeF][dC]-{Piperazinyl(4-CH2COOH)}; thioether N-15),0,0,74,88,–,–,–,–
CC[C@H](C)[C@@H]1NC(=O)[C@H](Cc2ccccc2)N(C)C(=O)[C@H](Cc2ccc(O)cc2)NC(=O)[C@H](Cc2c[nH]c3ccccc23)NC(=O)[C@H](C)NC(=O)CN(CCCN)C(=O)CSC[C@H](C(=O)N[C@@H](CN)C(N)=O)NC(=O)[C@H](Cc2ccccc2)N(C)C(=O)[C@H](C)N(C)C(=O)[C@H](CC(C)C)NC(=O)[C@H](Cc2ccccc2)N(C)C(=O)[C@H](CCCNC(=N)N)NC(=O)[C@H](Cc2ccc(O)cc2)NC(=O)[C@H](Cc2ccc(O)cc2)NC(=O)CN(C)C1=O [Myostatin_99_Variant_09] ({CH2CO}-[Gly(N(CH2)3NH2)]AWY[NMeF]I[Sar]YYR[NMeF]L[NMeA][NMeF][dC][Dap]-NH2; thioether N-15),0,11,65,90,–,–,–,–
CC[C@H](C)[C@@H]1NC(=O)[C@H](Cc2ccccc2)N(C)C(=O)[C@H](Cc2ccc(Oc3ccccc3)cc2)NC(=O)[C@H](Cc2ccc(-c3ccccn3)cc2)NC(=O)[C@H](C)NC(=O)CN(CCCC(=O)O)C(=O)CSC[C@H](C(=O)O)NC(=O)[C@H](Cc2ccccc2)N(C)C(=O)[C@H](C)N(C)C(=O)[C@H](CC(C)C)NC(=O)[C@H](Cc2ccccc2)N(C)C(=O)[C@H](CCCNC(=N)N)NC(=O)[C@H](Cc2ccc(OCC(=O)O)cc2)NC(=O)[C@H](Cc2ccccc2)NC(=O)CN(C)C1=O [Myostatin_99_v60] ({CH2CO}-[Gly(N(CH2)3COOH)]A[X15][Tyr(Ph)][NMeF]I[Sar]FY(Carboxymethyl)R[NMeF]L[NMeA][NMeF][dC]-OH; thioether N-15),7,5,25,51,–,–,–,–
CCCCCCCCCC[C@@H]1NC(=O)[C@H](CC2CCCCC2)NC(=O)[C@H](CCCNC(=N)N)NC(=O)[C@H](Cc2ccc(C(=O)O)cc2)NC(=O)[C@H](CCCCNC(=O)N2CCN(CC(=O)O)CC2)NC(=O)CN(C)C(=O)[C@H]([C@@H](C)CC)NC(=O)[C@H](Cc2ccccc2)N(C)C(=O)[C@H](Cc2ccc(O)cc2)NC(=O)[C@H](Cc2c[nH]c3ccccc23)NC(=O)[C@H](C)NC(=O)[C@H](C)NC(=O)CSC[C@H](C(=O)N2CCN(CC(=O)O)CC2)NC(=O)[C@H](Cc2ccccc2)N(C)C(=O)[C@H](CCC(=O)O)N(C)C1=O [Myostatin_99_v269] ({CH2CO}-AAWY[NMeF]I[Sar]K([CO-Piperazinyl(4-CH2COOH)])[Phe(4-COOH)]R[Cha][Gly(decyl)][NMeE][NMeF][dC]-{Piperazinyl(4-CH2COOH)}; thioether N-15),3,59,100,100,–,–,–,–
CC[C@H](C)[C@@H]1NC(=O)[C@H](Cc2ccccc2)N(C)C(=O)[C@H](Cc2ccc(O)cc2)NC(=O)[C@H](Cc2c[nH]c3ccccc23)NC(=O)[C@H](CCCNC(=N)N)NC(=O)[C@H](C)NC(=O)CSC[C@@H](C(=O)N[C@H](CCC(=O)O)C(N)=O)NC(=O)[C@H](Cc2ccccc2)N(C)C(=O)[C@H](C)N(C)C(=O)[C@H](CC(C)C)NC(=O)[C@H](Cc2ccccc2)N(C)C(=O)[C@H](CCCNC(=N)N)NC(=O)[C@H](Cc2ccc(O)cc2)NC(=O)[C@H](Cc2ccc(O)cc2)NC(=O)CN(C)C1=O [Myostatin_000099_16de] ({CH2CO}-ARWY[NMeF]I[Sar]YYR[NMeF]L[NMeA][NMeF]C[dE]-NH2; thioether N-15),0,3,50,82,–,–,–,–
CC[C@H](C)[C@@H]1NC(=O)[C@H](Cc2ccccc2)N(C)C(=O)[C@H](Cc2ccc(O)cc2)NC(=O)[C@H](Cc2c[nH]c3ncccc23)NC(=O)[C@H](C)NC(=O)CN(CCCC(=O)O)C(=O)CSC[C@H](C(=O)NCC(=O)N[C@H](CCC(=O)O)C(=O)NCC(=O)N[C@H](CCCCN)C(=O)O)NC(=O)[C@H](Cc2ccccc2)N(C)C(=O)[C@H](C)N(C)C(=O)[C@H](CC(C)C)NC(=O)[C@H](Cc2ccccc2)N(C)C(=O)[C@H](CCCNC(=N)N)NC(=O)[C@H](Cc2ccc(C(=O)O)cc2)NC(=O)[C@H](Cc2ccccc2)NC(=O)CN(C)C1=O [Myostatin_99_v30] ({CH2CO}-[Gly(N(CH2)3COOH)]A[Trp(7-aza)]Y[NMeF]I[Sar]F[Phe(4-COOH)]R[NMeF]L[NMeA][NMeF][dC]G[dE]G[dK]-OH; thioether N-15),0,0,31,60,–,–,–,–
CCCCCCC[C@@H]1NC(=O)[C@H](Cc2ccccc2)N(C)C(=O)[C@H](CCCNC(=N)N)NC(=O)[C@H](Cc2ccc(C(=O)O)cc2)NC(=O)[C@H](Cc2cccc(OCC(=O)O)c2)NC(=O)CN(C)C(=O)[C@H]([C@@H](C)CC)NC(=O)[C@H](Cc2ccccc2)N(C)C(=O)[C@H](Cc2ccc(O)cc2)NC(=O)[C@H](Cc2c[nH]c3ccccc23)NC(=O)[C@H](C)NC(=O)[C@H](C)NC(=O)CSC[C@@H](C(=O)N2CCN(CC(=O)O)CC2)NC(=O)[C@H](Cc2ccccc2)N(C)C(=O)[C@H](C)N(C)C1=O [Myostatin_99_v220] ({CH2CO}-AAWY[NMeF]I[Sar][Phe(3-OCH2COOH)][Phe(4-COOH)]R[NMeF][X1][NMeA][NMeF]C-{Piperazinyl(4-CH2COOH)}; thioether N-15),0,5,95,99,–,–,–,–
CCCCCCC[C@@H]1NC(=O)[C@H](Cc2ccccc2)N(C)C(=O)[C@H](CCCNC(=N)N)NC(=O)[C@H](Cc2ccc(C(=O)O)cc2)NC(=O)[C@H](Cc2cccc(OCC(=O)O)c2)NC(=O)[C@H](C)N(C)C(=O)[C@H]([C@@H](C)CC)NC(=O)[C@H](Cc2ccccc2)N(C)C(=O)[C@H](Cc2ccc(O)cc2)NC(=O)[C@H](Cc2ccc(-c3ccc(S(C)(=O)=O)cc3)cc2)NC(=O)[C@H](C)NC(=O)CN(CCCC(=O)O)C(=O)CSC[C@H](C(=O)O)NC(=O)[C@H](Cc2ccccc2)N(C)C(=O)[C@H](C)N(C)C1=O [Myostatin_99_v370] ({CH2CO}-[Gly(N(CH2)3COOH)]A[X6]Y[NMeF]I[NMeA][Phe(3-OCH2COOH)][Phe(4-COOH)]R[NMeF][X1][NMeA][NMeF][dC]-OH; thioether N-15),–,–,–,–,0,0,100,100
